According to US9012443B2 (Amgen Inc., priority 2011, dated 2015):

Legend:
[1] = biological target: Nav 1.5 (Homo sapiens (Human), UniProt Q14524); experiment: Nav 1.5 in vitro PX assay (PatchXpress whole cell voltage clamp); type: cell-based; settings: 293 cells stably transfected with Nav 1.5; second part of table; read-out: Nav1.5 PX IC50
Experimental: Nav 1.5 In Vitro PX Assay
293 cells stably transfected with Nav 1.5 were recorded in whole cell voltage clamp mode with the PatchXpress automated electrophysiology system according the manufacturer's specifications (Molecular Devices, LLC, Sunnyvale, Calif.). Cells were held at a holding potential of −50 mV to inactivate sodium channels. To elicit sodium currents the voltage was changed to −120 mV to recover a portion of the channels, followed by delivery of test pulses of 20 msec duration to 0 mV, at 0.1 Hz. A single concentration of test compound was applied to cells for a duration of 5 minutes. Peak sodium current was measured at the end of the compound addition period to determine percent inhibition. A minimum of two cells were tested per concentration. IC50 curves were fitted to percent inhibition as a function of concentration.

[2] = biological target: Nav 1.7 (Homo sapiens (Human), UniProt Q15858); experiment: Nav 1.7 in vitro PX assay (PatchXpress whole cell voltage clamp); type: cell-based; settings: 293 cells, human Nav1.7, partially inactivated state; read-out: Nav1.7 PX IC50 IP
Chain of Nav 1.7 (Q15858 whole entry): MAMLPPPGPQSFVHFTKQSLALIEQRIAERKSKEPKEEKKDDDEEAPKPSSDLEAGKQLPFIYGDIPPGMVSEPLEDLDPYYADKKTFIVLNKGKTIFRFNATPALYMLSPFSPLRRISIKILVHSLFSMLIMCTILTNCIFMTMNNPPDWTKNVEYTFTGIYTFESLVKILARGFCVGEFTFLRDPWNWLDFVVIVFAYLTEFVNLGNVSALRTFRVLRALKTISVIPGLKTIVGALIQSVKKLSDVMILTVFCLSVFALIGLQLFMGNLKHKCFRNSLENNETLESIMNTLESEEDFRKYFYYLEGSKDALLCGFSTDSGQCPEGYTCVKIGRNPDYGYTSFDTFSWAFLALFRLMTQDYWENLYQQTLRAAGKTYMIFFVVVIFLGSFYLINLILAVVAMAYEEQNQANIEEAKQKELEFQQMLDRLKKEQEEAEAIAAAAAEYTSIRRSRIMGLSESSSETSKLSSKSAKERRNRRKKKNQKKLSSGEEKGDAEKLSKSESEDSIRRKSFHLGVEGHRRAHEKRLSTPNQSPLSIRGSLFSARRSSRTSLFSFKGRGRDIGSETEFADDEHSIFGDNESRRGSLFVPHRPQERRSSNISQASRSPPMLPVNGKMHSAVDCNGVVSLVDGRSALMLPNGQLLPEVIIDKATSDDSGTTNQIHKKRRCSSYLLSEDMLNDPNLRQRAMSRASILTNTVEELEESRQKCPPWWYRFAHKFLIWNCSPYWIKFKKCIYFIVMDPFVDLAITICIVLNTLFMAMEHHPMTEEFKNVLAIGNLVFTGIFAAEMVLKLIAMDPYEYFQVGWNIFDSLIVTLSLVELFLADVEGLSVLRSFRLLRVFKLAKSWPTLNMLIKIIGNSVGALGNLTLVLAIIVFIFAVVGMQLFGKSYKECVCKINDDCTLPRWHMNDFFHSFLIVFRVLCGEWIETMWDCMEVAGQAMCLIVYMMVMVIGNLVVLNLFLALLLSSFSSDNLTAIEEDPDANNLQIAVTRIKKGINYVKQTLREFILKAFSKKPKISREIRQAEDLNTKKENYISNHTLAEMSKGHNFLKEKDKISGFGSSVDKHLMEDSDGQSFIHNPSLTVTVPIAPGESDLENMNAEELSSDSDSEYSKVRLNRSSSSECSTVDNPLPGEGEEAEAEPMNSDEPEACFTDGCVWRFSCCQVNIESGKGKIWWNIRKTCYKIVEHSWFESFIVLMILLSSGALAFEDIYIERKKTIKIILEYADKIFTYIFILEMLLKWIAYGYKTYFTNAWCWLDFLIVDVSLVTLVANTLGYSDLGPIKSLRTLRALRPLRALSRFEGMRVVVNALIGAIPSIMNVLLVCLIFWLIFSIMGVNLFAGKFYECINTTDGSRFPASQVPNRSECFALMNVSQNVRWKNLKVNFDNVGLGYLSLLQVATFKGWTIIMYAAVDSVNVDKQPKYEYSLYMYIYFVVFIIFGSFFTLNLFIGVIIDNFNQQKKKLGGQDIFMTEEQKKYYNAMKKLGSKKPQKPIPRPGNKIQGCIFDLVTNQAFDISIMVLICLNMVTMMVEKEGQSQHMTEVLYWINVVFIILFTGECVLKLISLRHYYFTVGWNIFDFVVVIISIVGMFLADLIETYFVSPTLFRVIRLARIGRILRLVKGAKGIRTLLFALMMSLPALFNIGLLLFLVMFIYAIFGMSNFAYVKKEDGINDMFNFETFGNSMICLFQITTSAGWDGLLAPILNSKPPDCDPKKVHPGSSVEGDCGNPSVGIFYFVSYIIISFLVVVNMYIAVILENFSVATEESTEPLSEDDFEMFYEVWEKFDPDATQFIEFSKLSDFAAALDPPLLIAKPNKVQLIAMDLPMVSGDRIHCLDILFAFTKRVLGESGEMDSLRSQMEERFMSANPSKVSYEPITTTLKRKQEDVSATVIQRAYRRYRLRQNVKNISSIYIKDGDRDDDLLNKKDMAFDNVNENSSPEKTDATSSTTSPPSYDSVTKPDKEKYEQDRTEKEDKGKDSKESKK
Summary of the method: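 Partially inactivated channel state (holding potential for 20–50% inactivation) probed in human Nav1.7-transfected 293 cells by automated patch clamp, test pulse −10 mV for 20 msec.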

Chain of Nav 1.5 (Q14524 whole entry): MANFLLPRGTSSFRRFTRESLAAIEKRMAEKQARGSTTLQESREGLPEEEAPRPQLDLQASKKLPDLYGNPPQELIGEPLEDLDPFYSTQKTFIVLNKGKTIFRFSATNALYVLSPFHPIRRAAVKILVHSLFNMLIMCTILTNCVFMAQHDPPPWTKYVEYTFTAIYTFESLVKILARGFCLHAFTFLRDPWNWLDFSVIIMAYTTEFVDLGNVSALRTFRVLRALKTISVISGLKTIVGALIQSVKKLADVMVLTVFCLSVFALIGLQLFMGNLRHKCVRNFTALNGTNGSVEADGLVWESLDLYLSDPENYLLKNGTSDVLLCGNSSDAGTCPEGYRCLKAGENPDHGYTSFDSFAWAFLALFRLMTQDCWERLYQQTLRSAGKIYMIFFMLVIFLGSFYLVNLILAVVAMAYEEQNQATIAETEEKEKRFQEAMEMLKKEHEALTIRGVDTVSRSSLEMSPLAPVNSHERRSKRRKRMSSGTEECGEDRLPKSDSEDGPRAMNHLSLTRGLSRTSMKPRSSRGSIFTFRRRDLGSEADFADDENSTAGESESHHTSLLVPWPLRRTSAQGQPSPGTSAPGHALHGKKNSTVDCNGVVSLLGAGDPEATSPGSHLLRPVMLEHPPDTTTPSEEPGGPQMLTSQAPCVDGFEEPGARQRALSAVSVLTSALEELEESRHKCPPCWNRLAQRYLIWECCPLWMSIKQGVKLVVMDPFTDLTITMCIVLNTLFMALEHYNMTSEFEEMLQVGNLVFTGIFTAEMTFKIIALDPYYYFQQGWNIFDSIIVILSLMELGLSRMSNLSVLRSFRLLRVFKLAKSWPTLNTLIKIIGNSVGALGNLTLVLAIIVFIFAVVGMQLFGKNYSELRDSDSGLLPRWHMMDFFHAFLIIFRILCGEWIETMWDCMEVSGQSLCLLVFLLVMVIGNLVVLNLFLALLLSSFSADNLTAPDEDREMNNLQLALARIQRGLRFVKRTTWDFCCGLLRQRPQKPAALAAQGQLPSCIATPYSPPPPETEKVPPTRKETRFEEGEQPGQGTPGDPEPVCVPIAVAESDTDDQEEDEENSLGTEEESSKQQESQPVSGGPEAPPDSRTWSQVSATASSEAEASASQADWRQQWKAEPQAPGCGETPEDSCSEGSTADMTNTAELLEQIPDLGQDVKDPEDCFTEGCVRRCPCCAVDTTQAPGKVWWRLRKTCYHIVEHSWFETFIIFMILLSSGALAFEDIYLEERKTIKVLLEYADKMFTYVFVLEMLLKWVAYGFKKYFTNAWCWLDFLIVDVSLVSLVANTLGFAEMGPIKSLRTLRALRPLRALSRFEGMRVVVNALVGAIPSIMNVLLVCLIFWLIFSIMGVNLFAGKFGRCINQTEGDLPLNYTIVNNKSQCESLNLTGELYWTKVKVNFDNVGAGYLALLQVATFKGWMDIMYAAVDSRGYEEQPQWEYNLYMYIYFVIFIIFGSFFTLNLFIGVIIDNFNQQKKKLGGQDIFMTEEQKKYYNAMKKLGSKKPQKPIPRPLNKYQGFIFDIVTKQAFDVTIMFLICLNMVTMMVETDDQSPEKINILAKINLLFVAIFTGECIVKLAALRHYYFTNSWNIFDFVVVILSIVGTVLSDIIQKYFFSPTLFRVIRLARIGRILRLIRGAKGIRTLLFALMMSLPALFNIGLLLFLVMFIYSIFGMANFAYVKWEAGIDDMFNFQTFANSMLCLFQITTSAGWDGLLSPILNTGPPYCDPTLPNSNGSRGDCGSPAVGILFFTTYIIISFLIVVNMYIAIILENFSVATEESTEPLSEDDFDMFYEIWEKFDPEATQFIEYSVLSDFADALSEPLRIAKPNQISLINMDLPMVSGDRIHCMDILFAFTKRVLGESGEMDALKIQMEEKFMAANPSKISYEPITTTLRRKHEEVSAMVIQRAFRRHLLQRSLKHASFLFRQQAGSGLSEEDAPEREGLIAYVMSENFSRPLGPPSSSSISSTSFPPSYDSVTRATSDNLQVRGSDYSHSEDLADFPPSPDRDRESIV

Row | Structure (SMILES) | IC50 [1] | IC50 [2]
1 | COc1ccc(-c2cccc(F)c2)cc1-c1nccc2cc(S(=O)(=O)Nc3ccncn3)ccc12 [Example 348, 1-(3′-FLUORO-4-METHOXY-[1,1′-BIPHENYL]-3-YL)-N-(PYRIMIDIN-4-YL)ISOQUINOLINE-6-SULFONAMIDE] | > 30000 nM | 102 nM
2 | COc1cc(C(F)(F)F)ccc1-c1nccc2cc(S(=O)(=O)Nc3nc(C#N)cs3)ccc12 [Example 421, N-(4-CYANOTHIAZOL-2-YL)-1-(2-METHOXY-4-(TRIFLUOROMETHYL)PHENYL)ISOQUINOLINE-6-SULFONAMIDE] | > 30000 nM | 786 nM
3 | COc1cc(F)ccc1-c1ncc(F)c2cc(S(=O)(=O)Nc3ncns3)ccc12 [Example 394, 4-FLUORO-1-(4-FLUORO-2-METHOXYPHENYL)-N-(1,2,4-THIADIAZOL-5-YL)ISOQUINOLINE-6-SULFONAMIDE] | > 30000 nM | 338 nM
4 | COc1cc(-c2ccc(F)c(C#N)c2)ccc1-c1nccc2cc(S(=O)(=O)Nc3ccncn3)ccc12 [Example 486, 1-(3′-CYANO-4′-FLUORO-3-METHOXY-[1,1′-BIPHENYL]-4-YL)-N-(PYRIMIDIN-4-YL)ISOQUINOLINE-6-SULFONAMIDE] | > 30000 nM | 338 nM
5 | COc1cc(-c2cc(C)cc(Cl)c2)ccc1-c1nccc2cc(S(=O)(=O)Nc3ccncn3)ccc12 [Example 495, 1-(3′-CHLORO-3-METHOXY-5′-METHYL-[1,1′-BIPHENYL]-4-YL)-N-(PYRIMIDIN-4-YL)ISOQUINOLINE-6-SULFONAMIDE] | 19100 nM | 95 nM
6 | COc1cc(-c2cc(F)cc(F)c2)ccc1-c1ncnc2cc(S(=O)(=O)Nc3nncs3)ccc12 [Example 531, 4-(3′,5′-DIFLUORO-3-METHOXY-[1,1′-BIPHENYL]-4-YL)-N-(1,3,4-THIADIAZOL-2-YL)QUINAZOLINE-7-SULFONAMIDE] | > 30000 nM | 231 nM
7 | COc1cc(-c2cc(F)cc(F)c2)c(C#N)cc1-c1nccc2cc(S(=O)(=O)Nc3ccon3)ccc12 [Example 343, 1-(2-CYANO-3′,5′-DIFLUORO-5-METHOXY-[1,1′-BIPHENYL]-4-YL)-N-(ISOXAZOL-3-YL)ISOQUINOLINE-6-SULFONAMIDE] | > 30000 nM | 145 nM
8 | COc1ccccc1-c1cncc2cc(S(=O)(=O)Nc3nccs3)ccc12 [Example 289, 4-(2-methoxyphenyl)-N-(thiazol-2-yl)isoquinoline-7-sulfonamide] | > 30000 nM | 340 nM
9 | COc1nc(-c2cccc(F)c2)ccc1-c1nccc2cc(S(=O)(=O)Nc3ccncn3)ccc12 [Example 363, 1-(6-(3-FLUOROPHENYL)-2-METHOXYPYRIDIN-3-YL)-N-(PYRIMIDIN-4-YL)ISOQUINOLINE-6-SULFONAMIDE] | > 30000 nM | 540 nM
10 | COc1ccccc1-c1ncnc2cc(S(=O)(=O)Nc3nccs3)ccc12 [Example 272, 4-(2-METHOXYPHENYL)-N-(THIAZOL-2-YL)QUINAZOLINE-7-SULFONAMIDE] | > 30000 nM | 460 nM
11 | COc1cc(-c2ccc(C)c(F)c2)ccc1-c1nccc2cc(S(=O)(=O)Nc3ccncn3)ccc12 [Example 471, 1-(3′-FLUORO-3-METHOXY-4′-METHYL-[1,1′-BIPHENYL]-4-YL)-N-(PYRIMIDIN-4-YL)ISOQUINOLINE-6-SULFONAMIDE] | > 30000 nM | 56 nM
12 | COc1cc(-c2cc(F)cc(F)c2)ccc1-c1nccc2cc(S(=O)(=O)Nc3ccncn3)ccc12 [Example 449, 1-(3′,5′-DIFLUORO-3-METHOXY-[1,1′-BIPHENYL]-4-YL)-N-(PYRIMIDIN-4-YL)ISOQUINOLINE-6-SULFONAMIDE] | > 30000 nM | 34 nM
13 | COc1cc(-c2cc(C)cc(F)c2)ccc1-c1nccc2cc(S(=O)(=O)Nc3ccncn3)ccc12 [Example 472, 1-(3′-FLUORO-3-METHOXY-5′-METHYL-[1,1′-BIPHENYL]-4-YL)-N-(PYRIMIDIN-4-YL)ISOQUINOLINE-6-SULFONAMIDE] | > 30000 nM | 63 nM
14 | COc1cc(-c2ccc(C)c(C)c2)ccc1-c1nccc2cc(S(=O)(=O)Nc3ccncn3)ccc12 [Example 469] | > 30000 nM | 170 nM
15 | COc1cc(F)cc(-c2ccc(-c3nccc4cc(S(=O)(=O)Nc5ccncn5)ccc34)c(OC)c2)c1 [Example 485, 1-(3′-FLUORO-3,5′-DIMETHOXY-[1,1′-BIPHENYL]-4-YL)-N-(PYRIMIDIN-4-YL)ISOQUINOLINE-6-SULFONAMIDE] | > 30000 nM | 128 nM
16 | COc1nc(-c2cccc(F)c2)c(Cl)cc1-c1nccc2cc(S(=O)(=O)Nc3nncs3)ccc12 [Example 498, 1-(5-CHLORO-6-(3-FLUOROPHENYL)-2-METHOXYPYRIDIN-3-YL)-N-(1,3,4-THIADIAZOL-2-YL)ISOQUINOLINE-6-SULFONAMIDE] | > 30000 nM | 760 nM

Row | Structure (SMILES) | IC50 [1] | IC50 [2]
17 | COc1cc(-c2cc(F)cc(F)c2)ccc1-c1nccc2cc(S(=O)(=O)Nc3cc(C)ncn3)ccc12 [Example 371, 1-(3′,5′-DIFLUORO-3-METHOXY-[1,1′-BIPHENYL]-4-YL)-N-(6-METHYLPYRIMIDIN-4-YL)ISOQUINOLINE-6-SULFONAMIDE] | > 30000 nM | 545 nM
18 | COc1cc(C(F)(F)F)ccc1-c1ncc(F)c2cc(S(=O)(=O)Nc3ncns3)ccc12 [Example 392, 4-FLUORO-1-(2-METHOXY-4-(TRIFLUOROMETHYL)PHENYL)-N-(1,2,4-THIADIAZOL-5-YL)ISOQUINOLINE-6-SULFONAMIDE] | > 30000 nM | 111 nM
19 | COc1cc(-c2cc(F)cc(C#N)c2)ccc1-c1nccc2cc(S(=O)(=O)Nc3ccncn3)ccc12 [Example 487, 1-(3′-CYANO-5′-FLUORO-3-METHOXY-[1,1′-BIPHENYL]-4-YL)-N-(PYRIMIDIN-4-YL)ISOQUINOLINE-6-SULFONAMIDE] | > 30000 nM | 287 nM
20 | COc1cc(-c2ccc(F)c(F)c2)ccc1-c1ncnc2cc(S(=O)(=O)Nc3nncs3)ccc12 [Example 530, 4-(3′,4′-DIFLUORO-3-METHOXY-[1,1′-BIPHENYL]-4-YL)-N-(1,3,4-THIADIAZOL-2-YL)QUINAZOLINE-7-SULFONAMIDE] | > 30000 nM | 233 nM
21 | COc1cc(C(F)(F)F)ccc1-c1n[nH]c(=O)c2cc(S(=O)(=O)Nc3nccs3)ccc12 [Example 293, 1-(2-METHOXY-4-(TRIFLUOROMETHYL)PHENYL)-4-OXO-N-(THIAZOL-2-YL)-3,4-DIHYDROPHTHALAZINE-6-SULFONAMIDE] | > 30000 nM | 150 nM
22 | COc1cc(C(F)(F)F)ccc1-c1nccc2cc(S(=O)(=O)Nc3nc(Cl)cs3)ccc12 [Example 419, N-(4-CHLOROTHIAZOL-2-YL)-1-(2-METHOXY-4-(TRIFLUOROMETHYL)PHENYL)ISOQUINOLINE-6-SULFONAMIDE] | > 30000 nM | 272 nM
23 | COc1cc(-c2cccc(F)c2)c(C#N)cc1-c1nccc2cc(S(=O)(=O)Nc3ncns3)ccc12 [Example 340, 1-(2-CYANO-3′-FLUORO-5-METHOXY-[1,1′-BIPHENYL]-4-YL)-N-(1,2,4-THIADIAZOL-5-YL)ISOQUINOLINE-6-SULFONAMIDE] | > 30000 nM | 56 nM
24 | COc1cc(C(F)(F)F)ccc1-c1ccnc2cc(S(=O)(=O)Nc3nccs3)c(F)cc12 [Example 319, 6-FLUORO-4-(2-METHOXY-4-(TRIFLUOROMETHYL)PHENYL)-N-(THIAZOL-2-YL)QUINOLINE-7-SULFONAMIDE 2,2,2-TRIFLUOROACETATE] | 2790 nM | 407 nM
25 | COc1cc(-c2cc(C)cc(C)c2)ccc1-c1nccc2cc(S(=O)(=O)Nc3ccncn3)ccc12 [Example 470] | > 30000 nM | 180 nM
26 | COc1cc(-c2cccc(F)c2)c(Cl)cc1-c1nccc2cc(S(=O)(=O)Nc3nncs3)ccc12 [Example 332, 1-(2-CHLORO-3′-FLUORO-5-METHOXY-[1,1′-BIPHENYL]-4-YL)-N-(1,3,4-THIADIAZOL-2-YL)ISOQUINOLINE-6-SULFONAMIDE] | 20700 nM | 28 nM
27 | COc1cc(CC(C)(C)C)ccc1-c1nccc2cc(S(=O)(=O)Nc3ccncn3)ccc12 [Example 360, 1-(2-METHOXY-4-NEOPENTYLPHENYL)-N-(PYRIMIDIN-4-YL)ISOQUINOLINE-6-SULFONAMIDE] | > 30000 nM | 513 nM
28 | COc1ccccc1-c1c(C#N)cnc2cc(S(=O)(=O)Nc3nccs3)ccc12 [Example 324, 3-CYANO-4-(2-METHOXYPHENYL)-N-(THIAZOL-2-YL)QUINOLINE-7-SULFONAMIDE] | > 30000 nM | 662 nM
29 | COc1cc(-c2cccc(F)c2)ccc1-c1ncnc2cc(S(=O)(=O)Nc3ncns3)ccc12 [Example 525, 4-(3′-FLUORO-3-METHOXY-[1,1′-BIPHENYL]-4-YL)-N-(1,2,4-THIADIAZOL-5-YL)QUINAZOLINE-7-SULFONAMIDE] | > 30000 nM | 58 nM
30 | COc1cc(-c2cccc(F)c2)ccc1-c1ncnc2cc(S(=O)(=O)Nc3ccncn3)ccc12 [Example 527, 4-(3′-FLUORO-3-METHOXY-[1,1′-BIPHENYL]-4-YL)-N-(PYRIMIDIN-4-YL)QUINAZOLINE-7-SULFONAMIDE] | > 30000 nM | 252 nM
31 | COc1cc(-c2cccc(C(F)(F)F)c2)ccc1-c1ncnc2cc(S(=O)(=O)Nc3ccncn3)ccc12 [Example 528, 4-(3-METHOXY-3′-(TRIFLUOROMETHYL)-[1,1′-BIPHENYL]-4-YL)-N-(PYRIMIDIN-4-YL)QUINAZOLINE-7-SULFONAMIDE] | > 30000 nM | 58 nM
32 | COc1cc(-c2cccc(F)c2)c(C#N)cc1-c1nccc2cc(S(=O)(=O)Nc3nncs3)ccc12 [Example 341, 1-(2-CYANO-3′-FLUORO-5-METHOXY-[1,1′-BIPHENYL]-4-YL)-N-(1,3,4-THIADIAZOL-2-YL)ISOQUINOLINE-6-SULFONAMIDE] | > 30000 nM | 69 nM
